Test results taken from patent publication US20230302142A1, “Cytotoxic Agents” (priority 2020, published 2023).

Key:
[1] = test system: U138-MG (Glioblastoma) HIF++; experiment: MTT cytotoxicity assay, U138-MG; type: cell-based; settings: Homo sapiens, 72 hour incubation
Description: (§1) The in vitro cytotoxicity of compounds 16 and 22 were evaluated in a panel of cell lines using the standard MTT assay for a 72 hour incubation period (Table 2). Free payloads produced cytotoxicities in the nanomolar to picomolar range.
(§2) Tumor cell lines were maintained in RPMI1640 medium supplemented with 10% heat-inactivated fetal bovine serum, 2 mM L-glutamine and 1 mM sodium pyruvate. 1800 cells per well were seeded in a volume of 180 μl in a 96-well flat bottom polystyrene plate. The cells were allowed to adhere overnight at 37° C. in a CO2 incubator. Ligands were initially formulated in DMSO, and stocks stored at −80° C. They were then further formulated at lox concentration in RPMI1640 medium. 20 ul of diluted samples were added into each treatment well. On each plate, blank wells with no cells, and untreated wells containing cells, were included. […] Cytotoxicity was evaluated using a tetrazolium salt-based assay, the MTT assay. […] The plate was then read on a plate reader at 540 nm, and percentage cell survival calculated as follows: ((mean absorbance treated wells at concentration x−mean absorbance blank wells)÷(mean absorbance untreated wells at concentration x−mean absorbance blank wells))×100. Data were plotted as concentration in nM vs. % cell survival in Microsoft Excel, and IC50 values (concentration where cell survival is reduced by a half) were determined from the graph.

SW-48 (Colorectal) = experiment: MTT cytotoxicity assay, SW-48; type: cell-based; settings: Homo sapiens, SW48, 72 hour incubation
Description: as §1, §2

LIM1215 (Colorectal) = experiment: MTT cytotoxicity assay, LIM1215; type: cell-based; settings: for IC50: LIM1215, MTT assay, 72 hour incubation, HIF1 negative cell-line
Description: as §1
Tumor cell lines were maintained in RPMI1640 medium supplemented with 10% heat-inactivated fetal bovine serum, 2 mM L-glutamine and 1 mM sodium pyruvate. 1800 cells per well were seeded in a volume of 180 μl in a 96-well flat bottom polystyrene plate. The cells were allowed to adhere overnight at 37° C. in a CO2 incubator. Ligands were initially formulated in DMSO, and stocks stored at −80° C. They were then further formulated at lox concentration in RPMI1640 medium. 20 ul of diluted samples were added into each treatment well. On each plate, blank wells with no cells, and untreated wells containing cells, were included. Plates were then cultured at 37° C. in a CO2 incubator for 72 hrs. Cytotoxicity was evaluated using a tetrazolium salt-based assay, the MTT assay. After 72 hours, the supernatant was removed from each well and 200 μl of a sterile filtered 500 μg/ml MTT solution in water added to each well. The plates were then incubated at 37° C. in a CO2 incubator for 4 hrs. The supernatant was then removed and the formazan crystals formed solubilized by adding 150 μl of DMSO to each well. The plate was then read on a plate reader at 540 nm, and percentage cell survival calculated as follows: ((mean absorbance treated wells at concentration x−mean absorbance blank wells)÷(mean absorbance untreated wells at concentration x−mean absorbance blank wells))×100. Data were plotted as concentration in nM vs. % cell survival in Microsoft Excel, and IC50 values (concentration where cell survival is reduced by a half) were determined from the graph.

transcription factors = experiment: Transcription factor plate array assay; type: cell-based; settings: HeLa cells, 100 nM, 6 hours
Description: The transcription factor plate array assay kit was obtained from Signosis Inc (USA). Briefly, 2×10^6 HeLa cells were treated with 100 nM 16 and incubated for 6 hours before extracting the nuclear protein and carrying out the TF plate array assay. The assay was carried out following the manufacturer's protocol. In the case of each transcription factor, the RLU value obtained for the cells treated with 16 was deducted from the respective values obtained for the untreated cells to obtain the differences in TF activation/inhibition.

MS1 DNA fragment = experiment: DNA footprinting (DNase I); type: binding
Description: The DNA sequence selectivity profile of 16 was investigated using a modification of the previously established DNA footprinting assay. Following an overnight incubation of the ligand-DNA complexes, the mixture was mixed with strand separation buffer containing 10 mM EDTA, 10 mM NaOH, 0.1% bromophenol blue, 80% formamide and incubated at 100° C. for 3 min. The mixture was then immediately cooled on ice and run on an 8% denaturing gel. […] This is in contrast to control molecules (FIG. 2), where indiscriminate binding to the DNA sequence can be observed.
Methods for the preparation of the “MS1” DNA fragment (FIG. 2) have been previously described^[19]. Briefly, the sequence which had been cloned into the BamHI site of pUC18 was obtained by cutting with HindIII and EcoRI. Radiolabelled DNA fragments were prepared by filling in the 3′-end of the HindIII site with [α-^32P]dATP using Klenow DNA polymerase (exo-).
The radiolabelled DNA fragment was separated from the remainder of the plasmid DNA on a 6% non-denaturing polyacrylamide gel. […]
Footprinting reactions were performed as previously described^[20] using the “MS1” DNA fragment, which represents a random DNA sequence. […] After gel purification, the radiolabelled DNA was dissolved in 10 mM Tris HCl pH 7.5 containing 0.1 mM EDTA, at a concentration of about 10 c.p.s per μL as determined on a hand held Geiger counter. […]

SW620 (Colorectal) = experiment: MTT cytotoxicity assay, SW620; type: cell-based; settings: Homo sapiens, SW-620, 72 hour incubation
Description: as §1, §2

A431 (Skin) HIF+ = experiment: MTT cytotoxicity assay, A431; type: cell-based; settings: Homo sapiens, A-431, 72 hour incubation
Description: as §1, §2

| SMILES | IC50 [1] [nM] | IC50 (SW-48 (Colorectal)) [nM] | IC50 (LIM1215 (Colorectal)) [nM] | major transcription factors down-regulated (transcription factors) | preferred binding site (sequence motif) (MS1 DNA fragment; R is preferably a G or C, X is any base) | DNA footprint / binding pattern on the MS1 DNA sequence (MS1 DNA fragment; overnight incubation of ligand-DNA complexes) | IC50 (SW620 (Colorectal)) [nM] | IC50 (A431 (Skin) HIF+) [nM] | potency relative to 16 (LIM1215 (Colorectal); HIF1 negative cell-line LIM1215) |
| --- | --- | --- | --- | --- | --- | --- | --- | --- | --- |
| COc1cc2c(cc1OCCCC(=O)Nc1cc(C(=O)Nc3ccc(-c4cc(C)c(C(=O)Nc5ccccc5)s4)nc3)n(C)c1)N=C[C@@H]1CCCCN1C2=O [Compound 16, (S)-4-(4-((2-Methoxy-12-oxo-6a,7,8,9,10,12-hexahydrobenzo[e]pyrido[1,2-a] [1,4]diazepin-3-yl)oxy)butanamido)-1-methyl-N-(6-(4-methyl-5-(phenyl-carbamoyl)thiophen-2-yl)pyridin-3-yl)-1H-pyrrole-2-carboxamide] | 0.261 | 0.142 | 1.6 | HIF1 (hypoxia-inducible factor 1), NF-1 (Neurofibromatosis type 1), FOXG1 and NF-κB | XRXXRRXX | only two preferred sites were observed | 0.302 | 0.029 |  |
| COc1cc2c(cc1OCCCC(=O)Nc1cc(C(=O)Nc3ccc(-c4cc(C(=O)Nc5ccccc5)n(C)c4)cc3)n(C)c1)N=C[C@@H]1CCCCN1C2=O [Compound 22, (S)-4-(4-((2-Methoxy-12-oxo-6a,7,8,9,10,12-hexahydrobenzo[e]pyrido[1,2-a][1,4]diazepin-3-yl)oxy)butanamido)-1-methyl-N-(4-(1-methyl-5-(phenylcarbamoyl)-1H-pyrrol-3-yl)phenyl)-1H-pyrrole-2-carboxamide] | 1.62 | 0.093 | 0.899 |  |  |  | 0.291 | 0.055 | two-fold more potent than 16 |
